Measured values reported in publication PMC2706954, “Dissecting Structural and Functional Diversity of the Lantibiotic Mersacidin” (Chemistry & Biology, 2009).
In brackets after ≈: the same amount, converted by molar mass.

How the values were obtained:
S. aureus SH1000 = assay type: cell-based, Staphylococcus aureus; settings: SH1000
Protocol: (§1) Antibacterial activity of fermentation samples or purified samples was determined by Mueller-Hinton Agar diffusion bioassays using M. luteus ATCC 4698 as the indicator strain. Susceptibility testing (minimum inhibitory concentration [MIC]) for all aerobic organisms, with the exception of S. pneumoniae, was performed following the recommendations of CLSI. Susceptibility testing of S. pneumoniae was performed by two-fold serial dilutions in brain-heart-infusion broth supplemented with 50 μg/ml Ca^2+. Vancomycin was used as a reference antibiotic, and plates were incubated aerobically, with shaking, for 18–20 hr at 37°C with the MIC defined as the lowest concentration of drug that prevented visible growth.

S. pneumoniae BAA-255 = assay type: cell-based, Streptococcus pneumoniae; settings: BAA-255
Protocol: as §1

M. luteus ATCC4698 = assay type: cell-based, Micrococcus luteus; settings: ATCC4698
Protocol: as §1

E. faecium 7131121 VRE = assay type: cell-based; settings: 7131121 VRE
Protocol: as §1

E. faecalis ATCC29212 = assay type: cell-based; settings: ATCC29212
Protocol: as §1

E. faecium ATCC19579 = assay type: cell-based; settings: ATCC19579
Protocol: as §1

S. aureus R33 MRSA = assay type: cell-based, Staphylococcus aureus; settings: R33
Protocol: as §1

S. epidermidis NCTC11047 = assay type: cell-based; settings: NCTC11047
Protocol: as §1

Row | Compound | MIC S. aureus SH1000 (S. aureus SH1000) [µg/mL] | MIC S. pneumoniae BAA-255 (S. pneumoniae BAA-255) | MIC M. luteus ATCC4698 (M. luteus ATCC4698) [µg/mL] | MIC E. faecium 7131121 VRE (E. faecium 7131121 VRE) [µg/mL] | MIC E. faecalis ATCC29212 (E. faecalis ATCC29212) [µg/mL] | MIC E. faecium ATCC19579 (E. faecium ATCC19579) [µg/mL] | MIC S. aureus R33 MRSA (S. aureus R33 MRSA) [µg/mL] | MIC S. epidermidis NCTC11047 (S. epidermidis NCTC11047) [µg/mL]
1 | C=C1NC(=O)C2NC(=O)[C@H](CC(C)C)NC(=O)C(NC(=O)[C@@H]3CSC(C)C(NC(=O)[C@H](Cc4ccccc4)NC(=O)C4NC(=O)[C@@H](N)CSC4C)C(=O)N[C@@H](CC(C)C)C(=O)N[C@@H](Cc4c[nH]cn4)C(=O)NCC(=O)NCC(=O)NCC(=O)NCC(=O)N[C@@H](C(C)C)C(=O)N3)C(C)SC[C@H](NC(=O)[C@H](CCC(=O)O)NC1=O)C(=O)N[C@@H]([C@@H](C)CC)C(=O)NC=CSC2C (stereo partly drawn) [P6H] | 64 (≈ 34.3 µM) | 64, >64 μg/ml | 16 (≈ 8.57 µM) | >64 | >64 | >64 |  | 
2 | C=C1NC(=O)C2NC(=O)[C@H](CC(C)C)NC(=O)C(NC(=O)[C@@H]3CSC(C)C(NC(=O)[C@H](Cc4ccccc4)NC(=O)C4NC(=O)[C@@H](N)CSC4C)C(=O)N[C@@H](CC(C)C)C(=O)N4CCC[C@H]4C(=O)NCC(=O)NCC(=O)NCC(=O)NCC(=O)N[C@@H](CCSC)C(=O)N3)C(C)SC[C@H](NC(=O)[C@H](CCC(=O)O)NC1=O)C(=O)N[C@@H]([C@@H](C)CC)C(=O)NC=CSC2C (stereo partly drawn) [V11M] | 64 (≈ 34.4 µM) | 32 µg/mL (≈ 17.2 µM) | 16 (≈ 8.61 µM) | 64 (≈ 34.4 µM) | 64 (≈ 34.4 µM) | 32 (≈ 17.2 µM) | 32 (≈ 17.2 µM) | 
3 | C=C1NC(=O)C2NC(=O)[C@H](CC(C)C)NC(=O)C(NC(=O)[C@@H]3CSC(C)C(NC(=O)[C@H](Cc4ccccc4)NC(=O)C4NC(=O)[C@@H](N)CSC4C)C(=O)N[C@@H](CC(C)C)C(=O)N4CCC[C@H]4C(=O)N[C@@H](CC(N)=O)C(=O)NCC(=O)NCC(=O)NCC(=O)N[C@@H](C(C)C)C(=O)N3)C(C)SC[C@H](NC(=O)[C@H](CCC(=O)O)NC1=O)C(=O)N[C@@H]([C@@H](C)CC)C(=O)NC=CSC2C (stereo partly drawn) [G7N] | 64 (≈ 34 µM) | 16 µg/mL (≈ 8.5 µM) | < 4 | >64 | >64 | 64 (≈ 34 µM) |  | 32 (≈ 17 µM)
4 | C=C1NC(=O)C2NC(=O)[C@H](CC(C)C)NC(=O)C(NC(=O)[C@@H]3CSC(C)C(NC(=O)[C@H](Cc4ccccc4)NC(=O)C4NC(=O)[C@@H](N)CSC4C)C(=O)N[C@@H](CC(C)C)C(=O)N4CCC[C@H]4C(=O)NCC(=O)NCC(=O)NCC(=O)NCC(=O)N[C@@H](CC(C)C)C(=O)N3)C(C)SC[C@H](NC(=O)[C@H](CCC(=O)O)NC1=O)C(=O)N[C@@H]([C@@H](C)CC)C(=O)NC=CSC2C (stereo partly drawn) [V11L] | 64 (≈ 34.8 µM) |  |  | 32 (≈ 17.4 µM) | 64 (≈ 34.8 µM) | 32 (≈ 17.4 µM) | 32 (≈ 17.4 µM) | 16 (≈ 8.69 µM)
5 | C=C1NC(=O)C2NC(=O)[C@H](CCSC)NC(=O)C(NC(=O)[C@@H]3CSC(C)C(NC(=O)[C@H](Cc4ccccc4)NC(=O)C4NC(=O)[C@@H](N)CSC4C)C(=O)N[C@@H](CC(C)C)C(=O)N4CCC[C@H]4C(=O)NCC(=O)NCC(=O)NCC(=O)NCC(=O)N[C@@H](C(C)C)C(=O)N3)C(C)SC[C@H](NC(=O)[C@H](CCC(=O)O)NC1=O)C(=O)N[C@@H]([C@@H](C)CC)C(=O)NC=CSC2C (stereo partly drawn) [L14M] | 32 (≈ 17.4 µM) | 4 µg/mL (≈ 2.17 µM) | 2 (≈ 1.08 µM) | 64 (≈ 34.7 µM) | 64 (≈ 34.7 µM) | 64 (≈ 34.7 µM) | 16 (≈ 8.68 µM) | 
6 | C=C1NC(=O)C2NC(=O)[C@H](CC(C)C)NC(=O)C(NC(=O)[C@@H]3CSC(C)C(NC(=O)[C@H](Cc4ccccc4)NC(=O)C4NC(=O)[C@@H](N)CSC4C)C(=O)N[C@@H](CC(C)C)C(=O)N4CCC[C@H]4C(=O)NCC(=O)N[C@@H](CCC(N)=O)C(=O)NCC(=O)NCC(=O)N[C@@H](C(C)C)C(=O)N3)C(C)SC[C@H](NC(=O)[C@H](CCC(=O)O)NC1=O)C(=O)N[C@@H]([C@@H](C)CC)C(=O)NC=CSC2C (stereo partly drawn) [G8Q] | >64 |  | 8 (≈ 4.22 µM) | >64 | >64 | >64 | 32 (≈ 16.9 µM) | 
7 | C=C1NC(=O)C2NC(=O)[C@H](CC(C)C)NC(=O)C(NC(=O)[C@@H]3CSC(C)C(NC(=O)[C@H](Cc4ccccc4)NC(=O)C4NC(=O)[C@@H](N)CSC4C)C(=O)N[C@@H](CC(C)C)C(=O)N4CCC[C@H]4C(=O)NCC(=O)NCC(=O)NCC(=O)N[C@@H](Cc4ccc(O)cc4)C(=O)N[C@@H](C(C)C)C(=O)N3)C(C)SC[C@H](NC(=O)[C@H](CCC(=O)O)NC1=O)C(=O)N[C@@H]([C@@H](C)CC)C(=O)NC=CSC2C (stereo partly drawn) [G10Y] | >64 | < 4 µg/mL | < 4 | >64 | 32 (≈ 16.6 µM) | 64 (≈ 33.1 µM) | 64 (≈ 33.1 µM) | 
8 | C=C1NC(=O)C2NC(=O)[C@H]([C@@H](C)CC)NC(=O)C(NC(=O)[C@@H]3CSC(C)C(NC(=O)[C@H](Cc4ccccc4)NC(=O)C4NC(=O)[C@@H](N)CSC4C)C(=O)N[C@@H](CC(C)C)C(=O)N4CCC[C@H]4C(=O)NCC(=O)NCC(=O)NCC(=O)NCC(=O)N[C@@H](C(C)C)C(=O)N3)C(C)SC[C@H](NC(=O)[C@H](CCC(=O)O)NC1=O)C(=O)N[C@@H]([C@@H](C)CC)C(=O)NC=CSC2C (stereo partly drawn) [L14I] | 32 (≈ 17.5 µM) | 1 µg/mL (≈ 0.548 µM) |  |  | 32 (≈ 17.5 µM) | 16 (≈ 8.76 µM) | 8 (≈ 4.38 µM) | 
9 | C=C1NC(=O)C2NC(=O)[C@H](CC(C)C)NC(=O)C(NC(=O)[C@@H]3CSC(C)C(NC(=O)[C@H](Cc4ccccc4)NC(=O)C4NC(=O)[C@@H](N)CSC4C)C(=O)N[C@@H](CC(C)C)C(=O)N4CCC[C@H]4C(=O)N[C@@H](C)C(=O)NCC(=O)NCC(=O)NCC(=O)N[C@@H](C(C)C)C(=O)N3)C(C)SC[C@H](NC(=O)[C@H](CCC(=O)O)NC1=O)C(=O)N[C@@H]([C@@H](C)CC)C(=O)NC=CSC2C (stereo partly drawn) [G7A] | >64 | >64 µg/mL | 64 (≈ 34.8 µM) | >64 | >64 | 64 (≈ 34.8 µM) |  | 64 (≈ 34.8 µM)
10 | CC[C@H](C)[C@@H]1NC(=O)[C@@H]2CSC(C)C(NC(=O)[C@@H]3CSC(C)C(NC(=O)[C@H](Cc4ccccc4)NC(=O)C4NC(=O)[C@@H](N)CSC4C)C(=O)N[C@@H](CC(C)C)C(=O)N4CCC[C@H]4C(=O)NCC(=O)NCC(=O)NCC(=O)NCC(=O)N[C@@H](C(C)C)C(=O)N3)C(=O)N[C@@H](CC(C)C)C(=O)NC(C(=O)NCC(=O)N[C@@H](CCC(=O)O)C(=O)N2)C(C)SC=CNC1=O (stereo partly drawn) [S16G] | 32 (≈ 17.6 µM) | 2 µg/mL (≈ 1.1 µM) |  | 64 (≈ 35.3 µM) | 64 (≈ 35.3 µM) | 32 (≈ 17.6 µM) | 16 (≈ 8.82 µM) | 16 (≈ 8.82 µM)
11 | C=C1NC(=O)C2NC(=O)[C@H](C(C)C)NC(=O)C(NC(=O)[C@@H]3CSC(C)C(NC(=O)[C@H](Cc4ccccc4)NC(=O)C4NC(=O)[C@@H](N)CSC4C)C(=O)N[C@@H](CC(C)C)C(=O)N4CCC[C@H]4C(=O)NCC(=O)NCC(=O)NCC(=O)NCC(=O)N[C@@H](C(C)C)C(=O)N3)C(C)SC[C@H](NC(=O)[C@H](CCC(=O)O)NC1=O)C(=O)N[C@@H]([C@@H](C)CC)C(=O)NC=CSC2C (stereo partly drawn) [L14V] | 32 (≈ 17.7 µM) | 4 µg/mL (≈ 2.21 µM) |  | >64 | 64 (≈ 35.3 µM) | 64 (≈ 35.3 µM) | 16 (≈ 8.83 µM) | 16 (≈ 8.83 µM)
